Results from patent US20220273676A1, “CHOLECALCIFEROL FOR USE IN THE TREATMENT OF CELIAC DISEASE” (ABIOGEN PHARMA S.P.A., priority 2019, published 2022).

Legend:
[1] = tested on: Zonula Occludens 1 or Zonulin-1 (Z0-1); experiment: Immunohistochemistry of ZO-1 in mucosa of small intestine of NOD mice; assay type: in vivo, mouse; conditions: 130 μg/kg vs vehicle group, IHC
Procedure: (§1) Small intestine samples were taken from mice belonging to experimental groups 2 (pathology control) and 7 (cholecalciferol 130 μg/kg) of the experiment described in Example 1 and were processed to evaluate by immunohistochemistry the expression of three proteins: the receptor for vitamin D (VDR), the T-cell marker (CD3) which indicates lymphocyte infiltration and the protein of Zonula Occludens 1 or Zonulin-1 (Z0-1) which is usually released in serum and tissue following destruction of the intestinal epithelial barrier, in particular of the intercellular tight junctions (TJs).
(§2) The samples were washed in xylene, hydrated and washed in water with solutions of ethanol and water to scale. The recovery of the antigen was carried out in sodium citrate buffer using the standard “pressure cooker” protocol. Once the antigen recovery was completed, the samples were placed at room temperature for 10 ‘and washed twice for 2’ in PBS tween (phosphate buffer saline with tween). Non-specific sites were blocked with 200 μL of T20 starting block.
They were then dispensed on each slide, either 200 μL of solution comprising the primary antibody of interest, or 200 μL of the respective negative control. The slides were then left to incubate overnight in a humid chamber with PBS at 4° C. […]
(§3) Antibody labelling in villi, crypts and goblet cells was evaluated.

NOD mice [2] = experiment: Histomorphometric measurement of villus length in small intestine of NOD mice; assay type: in vivo, mouse; conditions: for Villus length: celiac NOD mice
Text: (§4) For the study, the NOD (Non Obese Diabetic) mouse was chosen as an experimental model which, when fed with a standard diet containing gluten, is able to spontaneously develop enteropathy and autoimmune disorders, with alterations of the small intestine similar to those observed. in human celiac disease.
(§5) 103 female NOD mice aged four weeks were then placed in two different enclosure rooms (one for mice intended to follow a standard diet and one for mice intended for a gluten-free diet) and allowed to acclimate for a period of at least seven days.
(§6) They were then randomly assigned to seven different experimental groups. The development of enteropathy was achieved by feeding NOD mice with a standard diet containing gluten and administering gliadin orally with a dosage of 10 μg/kg for ten consecutive days.
(§7) The seven experimental groups are represented in the following table 1.
(§8) At the end of the treatment period the mice were sacrificed. A macroscopic examination was performed and the small intestine was removed from each mouse to be subjected to microscopic examinations.
(§9) In particular, histopathological and histomorphometric examinations were carried out on sections of intestine with a thickness of 5-7 μm placed in paraffin and stained with hematoxylin-eosin.
(§10) Fifteen histomorphometric measurements of the height of the villi were then carried out from each of the five small intestine sections evaluated for each mouse. The results of the microscopic histopathological evaluation are summarized in the following table 2, which contains the four degrees of lesion previously described and the number of animals of each group presenting the various types of lesions.

T-cell marker (CD3) = experiment: Immunohistochemistry of CD3 in mucosa of small intestine of NOD mice; assay type: in vivo, mouse; conditions: IHC
Procedure: as §1, §2
(§11) They were then dispensed on each slide, either 200 μL of solution comprising the primary antibody of interest, or 200 μL of the respective negative control. The slides were then left to incubate overnight in a humid chamber with PBS at 4° C.
(§12) After incubation, repeated washes were carried out in wash buffer at room temperature, after which the endogenous peroxidase was blocked with a 0.3% hydrogen peroxide buffer.
(§13) Subsequently, repeated washes were carried out again in wash buffer at room temperature and the secondary antibody was added, which was left to incubate for 1 hour at room temperature.
(§14) Repeated washings were then carried out again in wash buffer at room temperature. Subsequently, the DAB solution (3′,3′-Diaminobenzidine) was added, which was then blocked by washing at room temperature.
(§15) Finally, counterstaining with Meyer's hematoxylin was carried out and the reaction was stopped by washing in water.
(§16) The slides were then mounted with two drops of aqueous mounting medium and allowed to dry.
as §3

NOD mice [3] = experiment: Histopathological lesion scoring (Marsh) of small intestine in NOD mouse model of celiac disease; assay type: in vivo; conditions: for Lesion type 0, number of animals / Lesion type 1, number of animals / Lesion type 2, number of animals / Lesion type 3, number of animals: celiac NOD mice
Text: as §4, §5, §6, §7, §8, §9
The scoring system described in Marsh et al, Gut 1990 January; 31 (1): 111-4 was used, to allow comparison between groups with different degrees of inflammatory infiltration and type of lesions observed under the microscope, which provides for the following classification: • lesion type 0: normal intestinal mucosa; • lesion type 1 (infiltrative): normal morphology and architecture of the villi, higher number of intraepithelial lymphocytes; • lesion type 2 (hyperplastic): normal morphology and architecture of the villi, higher number of intraepithelial lymphocytes, hyperplasia of the glandular elements; • lesion type 3 ([…]): different degrees of atrophy of the villi with hypertrophy of the glandular crypts, superficial enterocytes with reduced height, higher number of intraepithelial lymphocytes.
as §10

[4] = tested on: receptor for vitamin D (VDR); experiment: Immunohistochemistry of VDR in mucosa of small intestine of NOD mice; assay type: in vivo, mouse; conditions: 130 μg/kg vs pathology control, IHC
Procedure: as §1, §2, §11, §12, §13, §14, §15, §16, §3

NOD mice [5] = experiment: Atrophy of the intestinal mucosa, Corazza-Villanacci classification, NOD mice; assay type: in vivo, mouse
Procedure: as §1
The atrophy of the intestinal mucosa was evaluated according to the Corazza-Villanacci classification.

[6] = cited from earlier work
[7] = tested on: tight intercellular junctions (TJs); conditions: preliminary studies in vivo and in vitro, Dong et al. 2018; cited from earlier work
[8] = 5 μg/kg/day orally once a day for 12 weeks, n = 15
[9] = 10 μg/kg/day orally once a day for 12 weeks, n = 15
[10] = 20 μg/kg/day orally once a day for 12 weeks, n = 16
[11] = 50 μg/kg/day orally once a day for 12 weeks, n = 16
[12] = 130 μg/kg/day orally once a day for 12 weeks, n = 15

## C=C1CC[C@H](O)C/C1=C/C=C1\CCC[C@]2(C)[C@@H]([C@H](C)CCCC(C)C)CC[C@@H]12 [Cholecalciferol]
[1]
  ZO-1 marking of villi and crypts: more marked in the group treated with the vehicle
NOD mice [2]; [8]
  Villus length: 65.7 ×10 μm
NOD mice [2]; [9]
  Villus length: 71.2 ×10 μm
NOD mice [2]; [10]
  Villus length: 76.1 ×10 μm
NOD mice [2]; [11]
  Villus length: 75.0 ×10 μm
NOD mice [2]; [12]
  Villus length: 78.8 ×10 μm
NOD mice [2]; 5-130 μg/kg
  Relation between increase in the length of the villi and dose administered: dose-dependent relationship
NOD mice [2]; all treated groups
  Villus length compared to untreated celiac controls: longer than those of the untreated celiac controls
T-cell marker (CD3); 130 μg/kg vs pathology control
  CD3 expression: less expressed
  CD3 intensity of marking in goblet cells: reduction in the intensity of the marking
  CD3 signal in goblet cells compared to the control: reduction in the signal
T-cell marker (CD3); 130 μg/kg
  CD3 labelling of villi and crypts: unlabeled
NOD mice [3]; [8]
  Lesion type 0, number of animals: 0
  Lesion type 1, number of animals: 2
  Lesion type 2, number of animals: 13
  Lesion type 3, number of animals: 0
NOD mice [3]; [9]
  Lesion type 0, number of animals: 0
  Lesion type 1, number of animals: 9
  Lesion type 2, number of animals: 4
  Lesion type 3, number of animals: 2
NOD mice [3]; [10]
  Lesion type 0, number of animals: 0
  Lesion type 1, number of animals: 7
  Lesion type 2, number of animals: 4
  Lesion type 3, number of animals: 5
NOD mice [3]; [11]
  Lesion type 0, number of animals: 3
  Lesion type 1, number of animals: 3
  Lesion type 2, number of animals: 9
  Lesion type 3, number of animals: 1
NOD mice [3]; [12]
  Lesion type 0, number of animals: 3
  Lesion type 1, number of animals: 3
  Lesion type 2, number of animals: 6
  Lesion type 3, number of animals: 3
NOD mice [3]; all tested doses (5-130 μg/kg)
  General depiction of the lesions compared to the untreated celiac mice: overall improvement
NOD mice [3]; highest doses, repeated administrations of 50 and 130 μg/kg
  General depiction of the lesions compared to the untreated celiac mice: significantly improved
[4]
  VDR marking in crypts: the same phenomenon was observed in the crypts
  VDR marking in villi: greater expression of VDR
  VDR, intensity of marking of goblet cells: greater intensity of marking
  VDR, number of marked goblet cells: smaller number of marked cells
NOD mice [5]; 130 μg/kg vs pathology control, ZO-1 slides
  Atrophy of the villi: less marked
NOD mice [5]; 130 μg/kg, VDR slides
  Atrophy in the villi compared to vehicle treated control: reduction in atrophy
[6]; estimated
  blood half-life (T1/2): 19 to 25 h
[6]; related to slow release by adipose tissue
  functional half-life: several weeks

## C=C1/C(=C\C=C2/CCC[C@]3(C)[C@@H]([C@H](C)CCCC(C)(C)O)CC[C@@H]23)C[C@@H](O)C[C@@H]1O [calcitriol]
[7]
  Effect on the intestinal mucosal barrier towards PT-G: protective action against TJs
